Our source for the IC50 values is patent publication US20260284214A1, “EXATECAN DERIVATIVE AND ANTIBODY-DRUG CONJUGATE THEREOF” (priority 2023, published 2026).

One test deals with BxPC-3 cells. Kind of test: Cell inhibitory activity experiment of cytotoxic drug (CellTiter-Glo, 72 hours). The note with it: Homo sapiens. The format is cell-based, human. On the procedure:
(§1) Human pancreatic adenocarcinoma cells BxPC-3 (ATCC, article number: CRL-1687) and human pharyngeal squamous cell carcinoma cells FaDu (ATCC, article number: HTB-43) were washed with PBS, then the cells were digested with 0.25% Trypsin-EDTA trypsin for about 3 minutes, and the digestion was terminated with a complete cell culture medium. The cells were centrifuged at 1000 rpm for 5 minutes, the supernatant was discarded, and the cells were resuspended with a complete cell culture medium, counted by a cell counter, and adjusted to a required density. Each well was added with 50 μL of the cell suspension according to 3000 cells per well, and the cell plate was placed into a 5% CO2 cell incubator at 37° C. to incubate the cells for 12-16 hours.
(§2) The cell plate was taken out of the incubator to observe a cell adhesion state, and after cell adhesion, each well was added with 50 μL of the sample (starting from 10 μM, diluted 5 times, 9 concentrations), shaken gently, and then placed into an incubator to incubate the cells for 72 hours. Each well was added with a Cell Titer-GLO™ (Promega, article number: G7572) working solution according to 100 μL/well and shaken gently to lyse the cells, and the plate was read on a microplate reader.
(§3) Data analysis: a graph was made by GraphPad Prism 7.0 software with a Log value of a sample concentration as an abscissa and Cytotoxicity % as an ordinate, and data were subjected to Nonlinear regression (curve fit) analysis to obtain an IC50 value of each compound.

A further test has as its system FaDu cells. The description is as above. It counts as cell-based, human. The note with it: Homo sapiens. Here is the method: as §1, §2, §3

For `CC[C@@]1(O)C(=O)OCc2c1cc1n(c2=O)Cc2c-1nc1cc(F)c(C)c3c1c2[C@@H](NC(=O)N(O)CCO)CC3` [Example 7, 3-((1S,9S)-9-ethyl-5-fluoro-9-hydroxy-4-methyl-10,13-dioxo-2,3,9,10,13,15-hexahydro-1H,12H-benzo[de]pyrano[3′,4′:6,7]indolizino[1,2-b]quinolin-1-yl)-1-hydroxy-1-(2-hydroxyethyl)urea], the IC50 was 0.76 nM in the test with BxPC-3 cells and below 0.1 nM with FaDu cells.
In the case of `CC[C@@]1(O)C(=O)OCc2c1cc1n(c2=O)Cc2c-1nc1cc(F)c(C)c3c1c2[C@@H](NC(=O)OC1CNC1)CC3` [Example 21, azetidine-3-yl((1S,9S)-9-ethyl-5-fluoro-9-hydroxy-4-methyl-10,13-dioxo-2,3,9,10,13,15-hexahydro-1H,12H-benzo[de]pyrano[3′,4′:6,7]indolizino[1,2-b]quinolin-1-yl)carbamate], the IC50 in the test on BxPC-3 cells was determined as 29.2 nM; in the test with FaDu cells, 19.8 nM.
`CC[C@@]1(O)C(=O)OCc2c1cc1n(c2=O)Cc2c-1nc1cc(F)c(C)c3c1c2[C@@H](NC(=O)N1CC(O)C1)CC3` [Example 10, N-((1S,9S)-9-ethyl-5-fluoro-9-hydroxy-4-methyl-10,13-dioxo-2,3,9,10,13,15-hexahydro-1H,12H-benzo[de]pyrano[3′,4′:6,7]indolizino[1,2-b]quinolin-1-yl)-3-hydroxyazetidine-1-carboxamide]: the IC50 in the test with BxPC-3 cells is 5.1 nM; in the test on FaDu cells it was 6.04 nM.
On the same counts, the results for `CC[C@@]1(O)C(=O)OCc2c1cc1n(c2=O)Cc2c-1nc1cc(F)c(C)c3c1c2[C@@H](NC(=O)N1CC(N)C1)CC3` [Example 15, 3-amino-N-((1S,9S)-9-ethyl-5-fluoro-9-hydroxy-4-methyl-10,13-dioxo-2,3,9,10,13,15-hexahydro-1H,12H-benzo[de]pyrano[3′,4′:6,7]indolizino[1,2-b]quinolin-1-yl) azetidine-1-carboxamide] are 20.5 nM and 11.4 nM.
Turning to `CC[C@@]1(O)C(=O)OCc2c1cc1n(c2=O)Cc2c-1nc1cc(F)c(C)c3c1c2[C@@H](NC(=O)N1C[C@@H](O)CO1)CC3` [Example 5, (R)—N-((1S,9S)-9-ethyl-5-fluoro-9-hydroxy-4-methyl-10,13-dioxo-2,3,9,10,13,15-hexahydro-1H,12H-benzo[de]pyrano[3′,4′:6,7]indolizino[1,2-b]quinolin-1-yl)-4-hydroxyisoxazoline-2-carboxamide], the IC50 in the test on BxPC-3 cells was below 0.1 nM; in the test with FaDu cells it was 0.75 nM.
As for `CC[C@@]1(O)C(=O)OCc2c1cc1n(c2=O)Cc2c-1nc1cc(F)c(C)c3c1c2[C@@H](NC(=O)N(CCO)OC)CC3` [Example 8, 3-((1S,9S)-9-ethyl-5-fluoro-9-hydroxy-4-methyl-10,13-dioxo-2,3,9,10,13,15-hexahydro-1H,12H-benzo[de]pyrano[3′,4′:6,7]indolizino[1,2-b]quinolin-1-yl)-1-(2-hydroxyethyl)-1-methoxyurea], the values for the IC50 in the test with BxPC-3 cells and in the test on FaDu cells were 1.45 nM and 0.13 nM, respectively.
On the same counts, the results for `CC[C@@]1(O)C(=O)OCc2c1cc1n(c2=O)Cc2c-1nc1cc(F)c(C)c3c1c2[C@@H](NC(=O)O[C@H]1C[C@@H](N)C1)CC3` [Example 19, (1S,3R)-3-aminocyclobutyl((1S,9S)-9-ethyl-5-fluoro-9-hydroxy-4-methyl-10,13-dioxo-2,3,9,10,13,15-hexahydro-1H,12H-benzo[de]pyrano[3′,4′:6,7]indolizino[1,2-b]quinolin-1-yl)carbamate] are 3.69 nM and 3.97 nM.
For the compound `CC[C@@]1(O)C(=O)OCc2c1cc1n(c2=O)Cc2c-1nc1cc(F)c(C)c3c1c2[C@@H](NC(=O)NC1CNC1)CC3` [Example 18, 1-(azetidin-3-yl)-3-((1S,9S)-9-ethyl-5-fluoro-9-hydroxy-4-methyl-10,13-dioxo-2,3,9,10,13,15-hexahydro-1H,12H-benzo[de]pyrano[3′,4′:6,7]indolizino[1,2-b]quinolin-1-yl)urea], the figures for the IC50 in the test on BxPC-3 cells and in the test on FaDu cells were 40.8 nM and 16.9 nM, respectively.
In the case of `CC[C@@]1(O)C(=O)OCc2c1cc1n(c2=O)Cc2c-1nc1cc(F)c(C)c3c1c2[C@@H](NC(=O)N[C@H]1C[C@H](N)C1)CC3` [Example 17], the IC50 was determined as 4.04 nM with BxPC-3 cells and 2.26 nM in the test on FaDu cells.
With `CC[C@@]1(O)C(=O)OCc2c1cc1n(c2=O)Cc2c-1nc1cc(F)c(C)c3c1c2[C@@H](NC(=O)N[C@H]1C[C@H](O)C1)CC3` [Example 12, 1-((1S,9S)-9-ethyl-5-fluoro-9-hydroxy-4-methyl-10,13-dioxo-2,3,9,10,13,15-hexahydro-1H,12H-benzo[de]pyrano[3′,4′:6,7]indolizino[1,2-b]quinolin-1-yl)-3-((1r,3S)-3-hydroxycyclobutyl)urea], the IC50 in the test on BxPC-3 cells worked out at 5.77 nM; with FaDu cells, 42 nM.
For `CC[C@@]1(O)C(=O)OCc2c1cc1n(c2=O)Cc2c-1nc1cc(F)c(C)c3c1c2[C@@H](NC(=O)N(CC#N)CCO)CC3` [Example 1, 1-(cyanomethyl)-3-((1S,9S)-9-ethyl-5-fluoro-9-hydroxy-4-methyl-10,13-dioxo-2,3,9,10,13,15-hexahydro-1H,12H-benzo[de]pyrano[3′,4′:6,7]indolizino[1,2-b]quinoline-1-yl)-1-(2-hydroxyethyl)urea], the results for the IC50 in the test on BxPC-3 cells and in the test on FaDu cells were 8.27 nM and 6.68 nM, respectively.
`CC[C@@]1(O)C(=O)OCc2c1cc1n(c2=O)Cc2c-1nc1cc(F)c(C)c3c1c2[C@@H](NC(=O)N1CC[C@@H](O)C1)CC3` [Example 14, (R)—N-((1S,9S)-9-ethyl-5-fluoro-9-hydroxy-4-methyl-10,13-dioxo-2,3,9,10,13,15-hexahydro-1H,12H-benzo[de]pyrano[3′,4′:6,7]indolizino[1,2-b]quinolin-1-yl)-3-hydroxypyrrolidine-1-carboxamide]: the IC50 turned out to be 6.27 nM in the test on BxPC-3 cells and 57.8 nM with FaDu cells.
With `CC[C@@]1(O)C(=O)OCc2c1cc1n(c2=O)Cc2c-1nc1cc(F)c(C)c3c1c2[C@@H](NC(=O)N1CC[C@H](O)C1)CC3` [Example 13, (S)—N-((1S,9S)-9-ethyl-5-fluoro-9-hydroxy-4-methyl-10,13-dioxo-2,3,9,10,13,15-hexahydro-1H,12H-benzo[de]pyrano[3′,4′:6,7]indolizino[1,2-b]quinolin-1-yl)-3-hydroxypyrrolidine-1-carboxamide], the values for the IC50 with BxPC-3 cells and in the test with FaDu cells were 2.49 nM and 36 nM, respectively.
Regarding `CC[C@@]1(O)C(=O)OCc2c1cc1n(c2=O)Cc2c-1nc1cc(F)c(C)c3c1c2[C@@H](NC(=O)N[C@H]1C[C@@H](N)C1)CC3` [Example 16], the IC50 in the test with BxPC-3 cells is 7.93 nM; with FaDu cells, 4.33 nM.
For `CC[C@@]1(O)C(=O)OCc2c1cc1n(c2=O)Cc2c-1nc1cc(F)c(C)c3c1c2[C@@H](NC(=O)O[C@H]1C[C@H](N)C1)CC3` [Example 20, (1R,3S)-3-aminocyclobutyl((1S,9S)-9-ethyl-5-fluoro-9-hydroxy-4-methyl-10,13-dioxo-2,3,9,10,13,15-hexahydro-1H,12H-benzo[de]pyrano[3′,4′:6,7]indolizino[1,2-b]quinolin-1-yl)carbamate], the IC50 stood at 3.05 nM with BxPC-3 cells and 2 nM in the test on FaDu cells.
The corresponding values for `CC[C@@]1(O)C(=O)OCc2c1cc1n(c2=O)Cc2c-1nc1cc(F)c(C)c3c1c2[C@@H](NC(=O)N(C#N)CCO)CC3` [Example 9, 1-cyano-3-((1S,9S)-9-ethyl-5-fluoro-9-hydroxy-4-methyl-10,13-dioxo-2,3,9,10,13,15-hexahydro-1H,12H-benzo[de]pyrano[3′,4′:6,7]indolizino[1,2-b]quinolin-1-yl)-1-(2-hydroxyethyl)urea] are 2.15 nM and 2.34 nM.
Regarding `CC[C@@]1(O)C(=O)OCc2c1cc1n(c2=O)Cc2c-1nc1cc(F)c(C)c3c1c2[C@@H](NC(=O)N1C[C@H](O)CO1)CC3` [Example 4, (S)—N-((1S,9S)-9-ethyl-5-fluoro-9-hydroxy-4-methyl-10,13-dioxo-2,3,9,10,13,15-hexahydro-1H,12H-benzo[de]pyrano[3′,4′:6,7]indolizino[1,2-b]quinolin-1-yl)-4-hydroxyisoxazolidine-2-carboxamide], the IC50 was determined as 1.84 nM in the test on BxPC-3 cells and 2.95 nM in the test on FaDu cells.
